The record followed here is patent publication US20230085307A1, “PYRIDAZINONE COMPOUND AND HERBICIDE” (NISSAN CHEMICAL CORPORATION, priority 2019, published 2023).

One experiment relates to oval-leafed pondweed. Briefly: Test Example 1: herbicidal activity, application before weed generation under submerged conditions (Table 16, symbol C). In kind it is in vivo, oval-leafed pondweed (Monochoria vaginalis). The note with it: amount of applied herbicide 320 g/ha. An outline of the steps:
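Submerged Wagner pots (alluvial soil, 4 cm water) sown with weed seeds and planted with 2.5-leaf rice seedlings; emulsifiable concentrate diluted in water applied to water surface on sowing day. Held in greenhouse at 25-30 °C; injury scored 0-5 by herbicidal rate after three weeks.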

In the next experiment the test system is late watergrass. Briefly: Test Example 2: herbicidal activity, application during weed generation under submerged conditions (Table 17, symbol A). In kind it is in vivo, late watergrass (Echinochloa oryzicola). To be noted: AAH 320 g/ha; application during weed generation, submerged conditions. An outline of the steps: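 Wagner pot, alluvial soil, 4 cm flood; mixed sowing of all species; greenhouse 25° C.–30° C. Emulsifiable formulation, water-diluted to predetermined dose, applied to paddy water at 1–2 leaf stage. Effect rated at 3 wk using the earlier test's scoring criteria.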

For a further experiment, the system named is barnyard grass. Briefly: Test Example 3: herbicidal effect by foliage application, Wagner pot (Table 18, symbol H). It is filed as in vivo, barnyard grass (Echinochloa crus-galli). The note with it: 320 g/ha. An outline of the steps: (§1)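 Plants were sown in alluvial soil held under 0.1–0.5 cm standing water and grown 14 days in a greenhouse at 25–30 °C. An emulsifiable formulation, water-diluted to the set dose, was then sprayed onto the foliage, and effects were scored three weeks later using previously defined criteria.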

The subject of a further experiment is Chinese sprangletop. Briefly: Test Example 3: herbicidal effect by foliage application, Wagner pot (Table 18, symbol D). In kind it is in vivo, chinese sprangletop (Leptochloa chinensis). The note with it: 320 g/ha. Put shortly:
as §1

In another experiment the test system is rice flat sedge. Briefly: Test Example 3: herbicidal effect by foliage application, Wagner pot (Table 18, symbol E). It is filed as in vivo, rice flat sedge (Cyperus iria). The note with it: 320 g/ha. Put shortly: as §1
For the next experiment, the system named is green foxtail. Description: Test Example 4: herbicidal effect by soil treatment (Table 19, symbol G). In kind it is in vivo, green foxtail (Setaria viridis). The note with it: amount of applied herbicide 320 g/ha. An outline of the steps:
(§2)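 Herbicidal effect was rated 3 weeks after treatment, using the scoring criteria of an earlier test. The compound, formulated as an emulsion and diluted in water to a set herbicide amount, had been sprayed uniformly on soil over freshly sown seeds. Growth took place in a greenhouse at 25° C. to 30° C.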

Experiment [1] has as its system windgrass. Description: Test Example 4: herbicidal effect by soil treatment (Table 19, symbol L). In kind it is in vivo, windgrass (Apera spica-venti). The note with it: amount of applied herbicide 320 g/ha. Put shortly:
as §2

Experiment [2] relates to velvetleaf. Description: Test Example 4: herbicidal effect by soil treatment (Table 19, symbol M). The note with it: amount of applied herbicide 320 g/ha. It is filed as in vivo, velvetleaf (Abutilon theophrasti). Put shortly:
as §2

Experiment [3] relates to lambsquarters. Description: Test Example 4: herbicidal effect by soil treatment (Table 19, symbol O). It is filed as in vivo, lambsquarters (Chenopodium album). The note with it: amount of applied herbicide 320 g/ha. Put shortly: as §2
The next experiment concerns chickweed. Description: Test Example 4: herbicidal effect by soil treatment (Table 19, symbol P). It is filed as in vivo, common chickweed (Stellaria media). The note with it: amount of applied herbicide 320 g/ha. Put shortly: as §2
In experiment [4] the test system is persian speedwell. Description: Test Example 4: herbicidal effect by soil treatment (Table 19, symbol R). It is filed as in vivo, Persian speedwell (Veronica persica). The note with it: amount of applied herbicide 320 g/ha. An outline of the steps: as §2
The next experiment relates to southern crabgrass. Description: Test Example 5: herbicidal effect by foliage application, plastic box (Table 20, symbol F). The note with it: foliage application, 320 g/ha, three weeks after application. It is filed as in vivo, southern crabgrass (Digitaria ciliaris). Put shortly:
(§3)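 Foliar spray test: emulsion formulation diluted in water to a set application rate, sprayed onto 14-day-old plants raised in diluvial soil at 25° C to 30° C under glass. Both herbicidal effect and crop effect rated visually three weeks later.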

Another experiment has as its system Italian ryegrass. Description: Test Example 5: herbicidal effect by foliage application, plastic box (Table 20, symbol K). In kind it is in vivo, Italian ryegrass (Lolium multiflorum). The note with it: foliage application, 320 g/ha, three weeks after application. An outline of the steps: as §3
The test system of experiment [5] is windgrass. Briefly: Test Example 5: herbicidal effect by foliage application, plastic box (Table 20, symbol L). In kind it is in vivo, windgrass (Apera spica-venti). The note with it: foliage application, 320 g/ha, three weeks after application. Put shortly: as §3
Experiment [6] deals with velvetleaf. Briefly: Test Example 5: herbicidal effect by foliage application, plastic box (Table 20, symbol M). It is filed as in vivo, velvetleaf (Abutilon theophrasti). To be noted: foliage application, 320 g/ha, three weeks after application. An outline of the steps:
as §3

The test system of experiment [7] is lambsquarters. Briefly: Test Example 5: herbicidal effect by foliage application, plastic box (Table 20, symbol O). In kind it is in vivo, lambsquarters (Chenopodium album). To be noted: foliage application, 320 g/ha, three weeks after application. An outline of the steps:
as §3

Experiment [8] relates to persian speedwell. Briefly: Test Example 5: herbicidal effect by foliage application, plastic box (Table 20, symbol R). In kind it is in vivo, Persian speedwell (Veronica persica). The note with it: foliage application, 320 g/ha, three weeks after application. An outline of the steps: as §3

`CCCCOc1ccc2c(-c3c(O)c(C)nn(C)c3=O)c(-c3ccccc3OC)sc2c1` [3-105]: the “Herbicidal effect, C: oval-leafed pondweed” value (from here on “Herbicidal effect, C”) in the experiment on oval-leafed pondweed was 5 (Herbicidal rate of 90% or more (almost completely withered)). In the experiment on late watergrass, the “herbicidal effect rating, A: late watergrass” value (from here on “herbicidal effect rating”) is 3 (Herbicidal rate of 40% or more and less than 70%). In addition, in the experiment on barnyard grass, the “herbicidal effect on barnyard grass (H)” value is 5 (Herbicidal rate of 90% or more (almost completely withered)). Moreover, the “herbicidal effect on Chinese sprangletop (D)” value (“herbicidal effect … (D)” below) with Chinese sprangletop was 5 (Herbicidal rate of 90% or more (almost completely withered)). Moreover, the “herbicidal effect on rice flat sedge (E)” value in the experiment with rice flat sedge was 4 (Herbicidal rate of 70% or more and less than 90%). Further, the “G: green foxtail, herbicidal effect grade” value (shortened to “G: green foxtail”) with green foxtail is 3 (Herbicidal rate of 40% or more and less than 70%). Further, the “L: windgrass, herbicidal effect grade” value in the experiment with windgrass [1] is 4 (Herbicidal rate of 70% or more and less than 90%); with windgrass [5], 5 (Herbicidal rate of 90% or more (almost completely withered)). For the same compound, the “M: velvetleaf, herbicidal effect grade” value is 0 (Herbicidal rate of 5% or less (almost no effect)) with velvetleaf [2] and 5 (Herbicidal rate of 90% or more (almost completely withered)) in the experiment on velvetleaf [6]. Also, the “O: lambsquarters, herbicidal effect grade” value (from here on “O: lambsquarters”) with lambsquarters [3] was 3 (Herbicidal rate of 40% or more and less than 70%); in the experiment with lambsquarters [7], 5 (Herbicidal rate of 90% or more (almost completely withered)). For the same compound, in the experiment on chickweed, the “P: chickweed, herbicidal effect grade” value was 3 (Herbicidal rate of 40% or more and less than 70%). Also, the “R: persian speedwell, herbicidal effect grade” value (“R: persian speedwell” for short) with persian speedwell [4] and with persian speedwell [8] was 5 (Herbicidal rate of 90% or more (almost completely withered)) throughout. Moreover, the “F: southern crabgrass, herbicidal effect grade” value (“F: southern crabgrass” for short) in the experiment on southern crabgrass is recorded as 5 (Herbicidal rate of 90% or more (almost completely withered)). For the same compound, in the experiment on Italian ryegrass, the “K: Italian ryegrass, herbicidal effect grade” value (from here on “K: Italian ryegrass”) was 5 (Herbicidal rate of 90% or more (almost completely withered)).

`COc1ccccc1-c1sc2cc(OCC(C)C)ccc2c1-c1c(O)c(C)nn(C)c1=O` [3-107]: the “Herbicidal effect, C” value in the experiment on oval-leafed pondweed is reported as 5 (Herbicidal rate of 90% or more (almost completely withered)). Also, the “herbicidal effect rating” value in the experiment with late watergrass was 3 (Herbicidal rate of 40% or more and less than 70%). The “herbicidal effect on barnyard grass (H)” value in the experiment with barnyard grass is 4 (Herbicidal rate of 70% or more and less than 90%). In addition, the “herbicidal effect … (D)” value in the experiment with Chinese sprangletop is 3 (Herbicidal rate of 40% or more and less than 70%). Besides, the “herbicidal effect on rice flat sedge (E)” value in the experiment on rice flat sedge was 4 (Herbicidal rate of 70% or more and less than 90%). Moreover, in the experiment on green foxtail, the “G: green foxtail” value was 4 (Herbicidal rate of 70% or more and less than 90%). For the same compound, the figures for the “L: windgrass, herbicidal effect grade” value with windgrass [1] and in the experiment on windgrass [5] were 0 (Herbicidal rate of 5% or less (almost no effect)) and 5 (Herbicidal rate of 90% or more (almost completely withered)), respectively. The “M: velvetleaf, herbicidal effect grade” value in the experiment with velvetleaf [2] is 1 (Herbicidal rate of 5% or more and less than 20%); in the experiment with velvetleaf [6] it was 5 (Herbicidal rate of 90% or more (almost completely withered)). In addition, the “O: lambsquarters” value in the experiment on lambsquarters [3] and in the experiment on lambsquarters [7] was 5 (Herbicidal rate of 90% or more (almost completely withered)) in each case. Also, the “P: chickweed, herbicidal effect grade” value in the experiment on chickweed was 1 (Herbicidal rate of 5% or more and less than 20%). Besides, the “R: persian speedwell” value was 4 (Herbicidal rate of 70% or more and less than 90%) in the experiment on persian speedwell [4]; 5 (Herbicidal rate of 90% or more (almost completely withered)) in the experiment with persian speedwell [8]. In addition, the “F: southern crabgrass” value with southern crabgrass was 5 (Herbicidal rate of 90% or more (almost completely withered)). Moreover, the “K: Italian ryegrass” value with Italian ryegrass was 5 (Herbicidal rate of 90% or more (almost completely withered)).

`CCCCCOc1ccc2c(-c3c(O)c(C)nn(C)c3=O)c(-c3ccccc3OC)sc2c1` [3-108]: the “Herbicidal effect, C” value in the experiment with oval-leafed pondweed is 5 (Herbicidal rate of 90% or more (almost completely withered)). Moreover, the “herbicidal effect rating” value with late watergrass was 2 (Herbicidal rate of 20% or more and less than 40%). The “herbicidal effect on barnyard grass (H)” value in the experiment on barnyard grass is 3 (Herbicidal rate of 40% or more and less than 70%). The “herbicidal effect … (D)” value in the experiment with Chinese sprangletop is 2 (Herbicidal rate of 20% or more and less than 40%). In the experiment on rice flat sedge, the “herbicidal effect on rice flat sedge (E)” value was 1 (Herbicidal rate of 5% or more and less than 20%). In the experiment on green foxtail, the “G: green foxtail” value is given as 0 (Herbicidal rate of 5% or less (almost no effect)). Also, the “L: windgrass, herbicidal effect grade” value with windgrass [1] and in the experiment with windgrass [5] was 0 (Herbicidal rate of 5% or less (almost no effect)) each time. The “M: velvetleaf, herbicidal effect grade” value with velvetleaf [2] was 0 (Herbicidal rate of 5% or less (almost no effect)); in the experiment on velvetleaf [6] it was 2 (Herbicidal rate of 20% or more and less than 40%). Further, the “O: lambsquarters” value in the experiment on lambsquarters [3] is 4 (Herbicidal rate of 70% or more and less than 90%); in the experiment with lambsquarters [7] it was 4 (Herbicidal rate of 70% or more and less than 90%). In the experiment with chickweed, the “P: chickweed, herbicidal effect grade” value was 0 (Herbicidal rate of 5% or less (almost no effect)). Moreover, the “R: persian speedwell” value in the experiment on persian speedwell [4] is 0 (Herbicidal rate of 5% or less (almost no effect)); in the experiment with persian speedwell [8], 4 (Herbicidal rate of 70% or more and less than 90%). The “F: southern crabgrass” value with southern crabgrass is recorded as 0 (Herbicidal rate of 5% or less (almost no effect)). Also, the “K: Italian ryegrass” value with Italian ryegrass is given as 0 (Herbicidal rate of 5% or less (almost no effect)).

With `COc1ccccc1-c1sc2cc(OC3CCCC3)ccc2c1-c1c(O)c(C)nn(C)c1=O` [3-109], the “Herbicidal effect, C” value with oval-leafed pondweed was 5 (Herbicidal rate of 90% or more (almost completely withered)). Moreover, in the experiment with late watergrass, the “herbicidal effect rating” value is given as 0 (Herbicidal rate of 5% or less (almost no effect)). For the same compound, the “herbicidal effect on barnyard grass (H)” value with barnyard grass was 3 (Herbicidal rate of 40% or more and less than 70%). For the same compound, in the experiment with Chinese sprangletop, the “herbicidal effect … (D)” value is 4 (Herbicidal rate of 70% or more and less than 90%). The “herbicidal effect on rice flat sedge (E)” value in the experiment on rice flat sedge is 4 (Herbicidal rate of 70% or more and less than 90%). Also, the “G: green foxtail” value in the experiment on green foxtail is 4 (Herbicidal rate of 70% or more and less than 90%). Moreover, the “L: windgrass, herbicidal effect grade” value in the experiment on windgrass [1] is 0 (Herbicidal rate of 5% or less (almost no effect)); in the experiment with windgrass [5], 4 (Herbicidal rate of 70% or more and less than 90%). For the same compound, the “M: velvetleaf, herbicidal effect grade” value in the experiment with velvetleaf [2] is 5 (Herbicidal rate of 90% or more (almost completely withered)); in the experiment on velvetleaf [6], 4 (Herbicidal rate of 70% or more and less than 90%). The “O: lambsquarters” value in the experiment on lambsquarters [3] is 5 (Herbicidal rate of 90% or more (almost completely withered)); with lambsquarters [7], 3 (Herbicidal rate of 40% or more and less than 70%). Also, the “P: chickweed, herbicidal effect grade” value with chickweed is 1 (Herbicidal rate of 5% or more and less than 20%). For the same compound, the “R: persian speedwell” value with persian speedwell [4] was 4 (Herbicidal rate of 70% or more and less than 90%); in the experiment with persian speedwell [8] it was 5 (Herbicidal rate of 90% or more (almost completely withered)). The “F: southern crabgrass” value in the experiment on southern crabgrass is 3 (Herbicidal rate of 40% or more and less than 70%). In the experiment with Italian ryegrass, the “K: Italian ryegrass” value is 4 (Herbicidal rate of 70% or more and less than 90%).
